The record followed here is patent publication US9889093B2, “Application of andrographolide in the preparation of a pharmaceutical for treatment of inflammatory bowel disease, andrographolide enteric targeting micropellet, and method for preparation thereof” (TASLY PHARMACEUTICAL GROUP CO., LTD., priority 2013, dated 2018).

The test system of one assay is DSS-induced UC mice. Briefly: DSS-induced UC mouse model, disease active index. The format is in vivo. The text has this: 4 Dose Designing and Grouping • 4.1 Grouping: quarantine-qualified 84 mice were randomly divided into 6 groups: the model control group, the positive control group, the tested drug low-dose intragastric group, the tested drug high-dose intragastric group, the tested drug low-dose intracolonical group and the tested drug high-dose intracolonical group, 14 mice per group. All animals drank 5% DSS solution daily for consecutive 14 days to establish UC model. Animals were administrated with the drug for treatment on the 2nd day after being given 5% DSS drinking water. • 4.2 Dose: in this study, dose of administration of the mice in all groups was designed on the basis of client's requirements, and the same doses were adopted in both intragastric and intracolonical groups. Animals were not treated in the model control group, the positive control group (mesalazine enteric tablet, 227.5 mg·kg^−1·d^−1), the andrographolide low-dose intragastric group (60 mg·kg^1·d^−1), the andrographolide high-dose intragastric group (180 mg·kg^−1·d^−1), the andrographolide low-dose intracolonical group (60 mg·kg^−1·d^−1) and the andrographolide high-dose intracolonical group (180 mg·kg^−1·d^−1).
5 Method • 5.1 Method of making UC model: all animals drank 5% DSS solution daily for consecutive 14 days. • 5.2 Method of administration: on the 2nd day after modeling, the mice were treated intragastrically or intracolonically with the drug at 1 mL/100 g once a day for consecutive 14 days. • 5.3 Method for sampling in experiment: 2 hours after the last administration, the mice were killed by cervical vertebra dislocation and abdomen was opened to separate the colon. Along mesenteric side, the intestinal lumen was cut and rinsed with 4° C. normal saline and spread on a plastic plate. • 5.4 Method for evaluating disease active index (DAI): the disease active index was assessed at the 7th and 14th day after administration. The method was presented together with the following three parameters: the body weight loss percentages (unchanged BW: 0 score, 1˜5: 1 score, 5˜10: 2 score, 10˜15: 3 score, more than 15: 4 score), stool viscosity (normal stool: 0 score, loosen stool: 2 score, diarrhea: 4 score) and blood stool (normal stool: 0 score, occult blood stool: 2 score and positive blood stool: 4 score). Total score of three parameters was divided by 3 to give the DAI, namely DAI=(BW index score+stool character score+stool blood score)/3.
6 Observation Indices • 6.1 Observation: the general clinical symptoms in the mice were observed daily from the beginning to the end of the experiment, and the stool, mental status and death status were recorded. • 6.2 Body weight: BW was recorded weekly from the beginning to the end of the experiment. • 6.3 Calculation of DAI: DAI was calculated on the 7th and 14th day after administration so as to assess disease activity. • 6.4 The colon mucosal tissue 8˜10 cm away from the anus was sampled, embedded with paraffin and stained with routine HE. Colon mucosal injury was observed by a microscope and histological injury was scored based on the following indices: ulcer inflammatory granuloma, fibrosis and pathological degree.
(§1) Data were expressed as mean+standard deviation (x±S). All numerical variables were analyzed with SPSS13.0 software by one-way ANOVA. T-test analysis was used for inter-group comparison.

For another assay, the system named is TNBS-induced UC rats. Put plainly: TNBS-induced UC rat model, different administration routes. It counts as in vivo. As to conditions: for Gross morphological injury score / Ulcer ratio: 5 days.
Description: 4 Dose Designing and Grouping • 4.1 Grouping: quarantine-qualified 84 rats were all used for making UC model. The successful rats were randomly divided into 6 groups: the model control group, the positive control group, the andrographolide low-dose intragastric group, the andrographolide high-dose intragastric group, the andrographolide low-dose intracolonical group and the andrographolide high-dose intracolonical group, 14 rats per group. • 4.2 Dose: the same doses were adopted in both intragastric and intracolonical groups. Animals were not treated in the model control group, the positive control group (mesalazine enteric tablet, 420 mg·kg^−1·d^−1), the andrographolide low-dose intragastric group (30 mg·kg^−1·d^−1), the andrographolide high-dose intragastric group (90 mg·kg^−1·d^−1), the andrographolide low-dose intracolonical group (30 mg·kg^−1·d^−1) and the andrographolide high-dose intracolonical group (90 mg·kg^−1·d^−1).
5. Method • 5.1 Method of making UC model: the rats were anesthetized. 2 mm-diameter latex tube was gently inserted into the position about 8 cm inside the body of the rats through anus, and TNBS in 50% ethanol solution (TNBS 125 mg/kg) was injected into intestinal lumen with an injector by one time, 0.5 ml/rat. The tail of the rat was lifted up for 30 s to make the model making agent (i.e., TNBS) fully infiltrate into the intestinal lumen of the rats. • 5.2 Method of administration: the same dose (1 mL/100 g) was adopted in both intragastric and intracolonical administration, once daily for consecutive 5 days. • 5.3 Method for sampling in experiment: 2 hours after the last administration, the rats were killed by cervical vertebra dislocation and abdomen was opened to separate the colon. Along mesenteric side, the intestinal lumen was cut and rinsed with 4° C. normal saline and spread on a plastic plate. • 5.4 Scoring method for colon gross morphological injury was referred to scoring method for mucosal injury (Bjelkengren G, Aronsen K F, Augustsson N E, etc. Radioprotective effect of local administration of lysine vasopressin and triglycyl lysine vasopressin on the rectal mucosa in rats[J]. Acta Oncol, 1995, 34(4):487-92) to record the mucosal injury score: dotted line blooding and small red spots (<1 mm): 1 score, piece blooding and big red spots (=1 mm): 3 score; and erosion and ulcer: 5 score.
as §1

Setting [1] is: andrographolide high-dose 180 mg/kg, intracolonical.
The mark [2] stands for this setting: andrographolide high-dose 180 mg/kg, intragastric.
Setting [3] is: andrographolide low-dose 60 mg/kg, intracolonical.
The mark [4] stands for this setting: andrographolide low-dose 60 mg/kg, intragastric.
[5] abbreviates: andrographolide high-dose 90 mg/kg, intracolonical.
[6] abbreviates: andrographolide high-dose 90 mg/kg, intragastric.
Where [7] appears, read: andrographolide low-dose 30 mg/kg, intracolonical.
The mark [8] stands for this setting: andrographolide low-dose 30 mg/kg, intragastric.

Marks after values point to notes of the source that are not given here.

In the case of `C=C1CC[C@@H]2[C@](C)(CO)[C@H](O)CC[C@@]2(C)[C@@H]1C/C=C1/C(=O)OC[C@H]1O` [Andrographolide], the “DAI on the 7th day” value is listed as 1.36 ± 0.64 in the assay on DSS-induced UC mice (setting [1]), 1.43 ± 0.38 in the assay with DSS-induced UC mice (setting [2]), 1.67 ± 0.65 in the assay on DSS-induced UC mice (setting [3]) and 1.63 ± 0.99 with DSS-induced UC mice (setting [4]). In addition, the “DAI on the 14th day” value in the assay with DSS-induced UC mice (setting [1]) worked out at 1.35 ± 0.18; with DSS-induced UC mice (setting [2]), 1.64 ± 0.83; in the assay on DSS-induced UC mice (setting [3]), 1.77 ± 0.95; in the assay on DSS-induced UC mice (setting [4]), 2.01 ± 0.80. For the same molecule, the “Gross morphological injury score” value in the assay on TNBS-induced UC rats (setting [5]) is reported as 1.96 ± 1.09; in the assay with TNBS-induced UC rats (setting [6]), 3.25 ± 1.98; in the assay on TNBS-induced UC rats (setting [7]), 6.53 ± 2.12; in the assay with TNBS-induced UC rats (setting [8]), 6.71 ± 2.57. The Ulcer ratio with TNBS-induced UC rats (setting [5]) is listed as 17.21** %; in the assay on TNBS-induced UC rats (setting [6]) it was 29.21** %; in the assay on TNBS-induced UC rats (setting [7]) it was 38.54* %; in the assay on TNBS-induced UC rats (setting [8]), 45.69* %. The “Formless watery stool symptoms, course” value in the assay on TNBS-induced UC rats (andrographolide high-dose intragastric and intracolonical groups, 90 mg/kg) is reported as “totally disappeared on the 4th˜5th days”.
